# Test results reported in publication PMC5814837 (Pest Management Science, 2017).
# Molecular target: mitochondrial succinate dehydrogenase (SDH) (Zymoseptoria tritici, UniProt F9X9V6+F9XH52+O42772, A84V)
# Assay: biochemical
# Conditions: IC50
row,Structure (SMILES),IC50 [µM]
1,"Cc1cc(OC(C)C)ccc1C(=O)C(C)(C)NC(=O)c1sccc1C [Isofetamid, N‐[1,1‐dimethyl‐2‐(4‐isopropoxy‐o‐tolyl)‐2‐oxoethyl]‐3‐methylthiophene‐2‐carboxamide]",> 32
2,"Cn1cc(C(=O)Nc2ccc(F)cc2-c2ccc(Cl)c(Cl)c2)c(C(F)F)n1 [Bixafen, bixafen]",0.106 ± 0.017
3,"O=C(NCCc1ncc(C(F)(F)F)cc1Cl)c1ccccc1C(F)(F)F [Fluopyram, fluopyram]",14.8 ± 1.32
